Here are results for six compounds from patent publication US6962712B2, “Cosmetic or dermatological composition comprising of a combination of an elastase inhibitor of the N-acylaminoamide family and at least one antifungal agent or at least one antibacterial agent” (L'Oreal, priority 2001, dated 2005).

Test [1] deals with surviving human skins irradiated by UVA. Kind of test: surviving human skins irradiated by UVA (8 J/cm2), morphometry of elastin fibres and collagen (Example 6). To be noted: UVA 8 J/cm2 once, 5 μl of compound at 0.2% in ethanol every two days, 7 days at 37° C. The method, then: The activity of the compound of Example 2 was evaluated on irradiated surviving human skins irradiated by UVA (8 J/cm2).
The test is performed in the following manner:
Fragments of normal human skin derived from four different donors are deposited in inserts placed in culture wells. Culture medium supplemented with antibiotics is added to the bottom of the wells. Passage by slow diffusion occurs between the two compartments through the intermediary of a porous membrane (pore size: 12 μm).
The culture medium is renewed every three days.
Every two days 5 μl of the test compound previously dissolved at 0.2% in ethanol are added to the skin fragments.
The skins are maintained in survival for 7 days at 37° C.
The skins are irradiated once only at 8 J/cm2 (Vilbert-Lourmat RMX-3W lamp).
The elastin fibres are stained blue with (+) catechol and quantified morphometrically by computer-assisted image analysis. The mean percentage dermal surface area occupied by the elastin fibres was thus evaluated.

Test [2] relates to Staphylococcus epidermis. Kind of test: ex vivo bacteria/skin adhesion model, 3H-thymidine labelled bacteria on intact human skin (Example 9). It counts as cell-based. To be noted: for Adherent bacteria: control (PBS) = 100%. As for the experimental part: The activity of resveratrol on the adhesion of micro-organisms to human skin or human mucous membranes was measured.
The activity of resveratrol (3,4′,5-trihydroxystilbene) on the adhesion of micro-organisms to human skin or human mucous membranes was tested in a bacteria/skin adhesion model, such as described below.
This ex vivo bacteria/skin adhesion model is based on the use of explants of intact human skin mounted in a sandwich between a bottomless 96 wells plate and a Plexiglas support.
(§1) This ex vivo bacteria/skin adhesion model is based on the use of intact human skin mounted in a sandwich between a bottomless 96 wells plate and a Plexiglas support. The impervious individualized wells make it possible to test in a standard format the effect of resveratrol on the adhesion of Staphylococcus epidermis (resident bacteria) to the surface of the skin. The bacteria are radiolabelled in the growth phase by the incorporation of 3H-thymidine. This bacterial flora is then deposited in each well. After incubation for one hour at 20° C., the wells are washed three times with phosphate buffered saline (PBS) in order to remove the free bacteria. The acacia honey is then added at 5 and 10% and incubation allowed to proceed for 1 hour at 20° C. At the end of this incubation the content of each well is recovered and counted in scintillation fluid (desorbed bacteria). The wells are then washed with a chaotropic solution which leads to the elution of the adherent bacteria. The washing solutions are also counted in scintillation fluid (adherent bacteria). A positive control (Fucogel® acid (poly-[(α-1,3)-Fuc-(α-1,3)-Gal-(α-1,3)-galacturonic]) acid is included in the study as reference.

Test [3] concerns Staphylococcus epidermis. In words: ex vivo bacteria/skin adhesion model, 3H-thymidine labelled bacteria on intact human skin (Example 8). To be noted: test product at 10%, 1 hour at 20° C., control (PBS) = 100%. It counts as cell-based. As for the experimental part: The activity of the honey on the adhesion of micro-organisms to the skin or to human mucous membranes was measured.
as §1, with “of acacia honey” for “of resveratrol”, “bacteria). The” for “bacteria). A”, “positive and negative controls” for “positive control”, “acid and Bioecolia® (Oligo-[α-1,4)-Gluc-(α-1,2)-Fruc-(α-1,6)-Gluc]) described in the publication of Wolf F. et al. (edition of 19th IFSCC Congress, Sydney, 1996) are” for “acid is”, “as references.” for “as reference.”

Test [4] deals with T1, human leukocyte elastase (HLE) (Homo sapiens, UniProt P08246).
T1 sequence (P08246 30-267): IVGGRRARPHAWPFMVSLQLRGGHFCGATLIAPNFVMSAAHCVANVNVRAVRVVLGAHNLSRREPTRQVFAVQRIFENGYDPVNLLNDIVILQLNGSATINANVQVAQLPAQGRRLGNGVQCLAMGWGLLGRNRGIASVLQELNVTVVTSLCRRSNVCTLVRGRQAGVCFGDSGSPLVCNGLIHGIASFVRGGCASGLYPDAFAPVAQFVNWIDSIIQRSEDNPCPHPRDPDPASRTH
In words: in vitro anti-elastase activity against human leukocyte elastase, substrate Me-OSAAPV-p-NA, spectrophotometry. To be noted: compound concentration 0.1%; HLE 40 milliunits per ml; 37° C., 60 minutes. It counts as biochemical. As for the experimental part: The anti-elastase activity of compounds according to the invention was determined in vitro against human leukocyte elastase (HLE)
The test was performed in the following manner:
A substrate Me-OSAAPV-p-NA (methyl-O-succinate alanine alanine proline valine-p-nitroanilide) to which is added the HLE (40 milliunits per ml) and 0.1% of the test compound is incubated at 37° C. for 60 minutes.
The % of inhibition of the elastase activity tested is then determined by spectrophotometry.

Setting [5] is: Staphylococcus, read-out: % of inhibition of adhesion of the bacteria.

As for `CC(=O)N(c1cccc(C(F)(F)F)c1)C(C(=O)NCC(=O)O)C(C)C` (centres unmarked) [Compound A, {2-[acetyl-(3-trifluoromethyl-phenyl)-amino]-3-methyl-butyrylamino}acetic acid], the “Morphometric analysis of elastin fibres (superficial dermis)” value in test [1] (untreated 6.75%, UVA alone 3.9%) is reported as 6.8%. Also, the “Morphometric analysis of collagen (superficial dermis)” value in test [1] (untreated 87%, UVA alone 81%) is 92%.
Compound `Oc1ccc(C=Cc2cc(O)cc(O)c2)cc1` [resveratrol, 3,4′,5-trihydroxystilbene] registered an Adherent bacteria in test [2] (0.1 μM) of 71%. Also, in test [2] (10 μM), the Adherent bacteria was determined as 64%. For the same compound, in test [2] (setting [5]), the inhibition at 0.1 µM amounted to 29% and the inhibition at 10 µM came to 36%.
With “Oligo-[α-1,4)-Gluc-(α-1,2)-Fruc-(α-1,6)-Gluc] [Bloé´colia ®]”, in test [3], the Adherent bacteria was found to be 76% and the Desorbed bacteria came out at 89%. Moreover, the Adherent bacteria result in test [3] (listed as Bioecolia®) is “no significant effect on adhesion”.
Take `CCOP(=O)(CC(=O)N(Cc1ccccc1)C(C(=O)NCCOC(C)=O)C(C)C)OCC` (centres unmarked) [Compound B, (2-{benzyl-[(diethoxy-phosphoryl)-acetyl]-amino}-3-methyl-butyryl-amino)ethyl acetate]: the “% inhibition of elastase activity tested” value in test [4] was 17%.
Same read-out and setting: in the case of `CC(=O)OCCNC(=O)C(C(C)C)N(Cc1ccccc1)C(C)=O` (centres unmarked) [Compound D, [2-(acetyl-benzyl-amino)-3-methyl-butyrylamino]ethyl acetate] it was 13%.
In test [3], “poly-[(α-1,3)-Fuc-(α-1,3)-Gal-(α-1,3)-galacturonic]) acid [Fucogel ®]” gave an Adherent bacteria of 12% and a Desorbed bacteria of 257%. In test [2] (test product at 10%), the Adherent bacteria is listed as 42%.

The term inhibition denotes the relative decrease from the control value, in per cent.
